Test results as given in patent publication US9850283B2, “Macrocyclic inhibitors of the PD-1/PD-L1 and CD80(B7-1)/PD-L1 protein/protein interactions” (BRISTOL-MYERS SQUIBB COMPANY, priority 2013, dated 2017).
Where two headings read alike, the source gives them in different places. Positions of bridges follow the written chain, without caps; N, C: chain ends. Non-standard residues stand in square brackets, D forms with d. Residues, ends and D or L forms follow the SMILES beside them. ξ: configuration not given here. NMeF = CN[C@@H](Cc1ccccc1)C(=O)O; NMeNle = CCCC[C@H](NC)C(=O)O; dNle = CCCC[C@@H](N)C(=O)O; NMeA = CN[C@@H](C)C(=O)O; ξV = CC(C)C(N)C(=O)O; Sar = CNCC(=O)O

Legend:
[1] = molecular target: Hu PD-L1/PD-1 (Homo sapiens, UniProt Q9NZQ7); experiment: Cell binding assay Hu PD-L1/PD-1 (Tables 11-13, cell line not given); type: cell-based
Chain of Hu PD-L1/PD-1 (Q9NZQ7 19-290): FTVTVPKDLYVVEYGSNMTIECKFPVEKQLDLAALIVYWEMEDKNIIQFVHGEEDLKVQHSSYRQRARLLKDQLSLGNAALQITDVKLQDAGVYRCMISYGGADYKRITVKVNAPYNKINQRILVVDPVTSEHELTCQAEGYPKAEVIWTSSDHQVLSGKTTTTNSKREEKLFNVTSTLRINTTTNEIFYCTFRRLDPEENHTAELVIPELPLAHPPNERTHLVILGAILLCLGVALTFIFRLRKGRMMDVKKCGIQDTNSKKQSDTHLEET
Experimental: The ability of the macrocyclic peptides of the present disclosure to bind to Jurkat, mouse B cell line (LK35.2), and a human lung adenocarcinoma cell line (L2987) was investigated. Jurkat-PD-1 Cell Binding Assay. Phycoerythrin (PE) was covalently linked to the Ig epitope tag of human PD-L1-Ig and fluorescently-labeled PD-L1-Ig was used for binding studies with a Jurkat cell line over-expressing human PD-1 (Jurkat-PD-1). […] Cells were washed 3× in dPBS. Cells were resuspended in 200 μl of dPBS and binding was measured by flow cytometry. LK35.2-hPD-L1 Cell Binding Assay. Phycoerythrin (PE) was covalently linked to the Ig eptitope tag of human PD-1-Ig and fluorescently-labeled PD-1-Ig was used for binding studies with a mouse B cell line (LK35.2) stably over-expressing human PD-L1 (LK35.2-hPD-L1). Briefly, […] LK35.2-hPD-L1 cells were pre-incubated with inhibitor for 15 m in a 30 μl volume of RPMI supplemented with 2% fetal calf serum. 20 μl of PE-labeled PD-1-Ig (2 nM final), diluted in RPMI supplemented with 2% fetal calf serum, was dispensed on top of cells and inhibitor and binding was allowed to take place for 1 h at room temperature. Cells were washed 3× in dPBS. Cells were resuspended in 200 μl of dPBS and binding was measured by flow cytometry. L2987 Cellomics Cell Binding Assay. Phycoerythrin (PE) was covalently linked to the Ig eptitope tag of human PD-1-Ig and fluorescently-labeled PD-1-Ig was used for binding studies with a human lung adenocarcinoma cell line (L2987) which naturally expresses PD-L1. […] The following day, inhibitors were diluted in serum-free DMEM and 25 μl was dispensed on top of cells. […] Samples were incubated for 1 h at 37° C. followed by 2 washes in dPBS and fixation for 30 m with 4% paraformaldehyde. Samples were further washed 2× in dPBS. Hoechst (final 1 μg/ml) was added to final wash to stain nuclei. Plates were processed using a Cellomics […]®.

[2] = molecular target: T1, Human PD-L1/PD-1 (Homo sapiens, UniProt Q9NZQ7); experiment: HTRF PD-1-Ig/PD-L1-His binding assay (human PD-L1); settings: read-out: HTRF Human PD-L1/PD-1 Binding Assay IC50
T1 construct: made in house; host or cells: HEK293T
T1 sequence (Q9NZQ7 with tags, fused parts or gaps): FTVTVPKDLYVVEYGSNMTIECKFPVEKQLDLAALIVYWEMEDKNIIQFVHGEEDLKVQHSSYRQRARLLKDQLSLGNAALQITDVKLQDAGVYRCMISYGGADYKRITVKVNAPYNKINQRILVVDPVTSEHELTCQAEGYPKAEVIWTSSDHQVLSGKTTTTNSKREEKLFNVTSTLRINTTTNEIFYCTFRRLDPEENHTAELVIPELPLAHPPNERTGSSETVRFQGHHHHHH
Summary of the method: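 Interaction of Fc-tagged soluble PD-1 with His-tagged soluble PD-L1 is monitored by time-resolved FRET. Donor is europium cryptate anti-Ig (1 nM final) and acceptor is APC anti-His (20 nM final). Assay buffer is dPBS with 0.1% BSA and 0.05% Tween-20.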

[3] = Table 8, Compound No. 1 variant macrocyclic peptides

| IC50 [1] [nM] | IC50 [2, 3] [nM] | other results | SMILES |
| --- | --- | --- | --- |
|  |  | IC50 ([1]; Table 11): 15 nM; IC50 ([2]; Table 6): 15 nM | CCCC[C@H]1C(=O)N(C)[C@@H](CCCC)C(=O)N[C@@H](CC(C)C)C(=O)N[C@H](C(=O)NCC(N)=O)CSCC(=O)N[C@@H](Cc2ccccc2)C(=O)N(C)[C@@H](C)C(=O)N[C@@H](CC(N)=O)C(=O)N2CCC[C@H]2C(=O)N[C@@H](Cc2c[nH]cn2)C(=O)N[C@@H](CC(C)C)C(=O)N[C@@H](CO)C(=O)N[C@@H](Cc2c[nH]c3ccccc23)C(=O)N[C@@H](CCCNC(=N)N)C(=O)N[C@@H](Cc2c[nH]c3ccccc23)C(=O)N1C [Compound No. 4] ({CH2CO}-F[NMeA]NPHLSWRW[NMeNle][NMeNle]LCG-NH2; thioether N-14) |
| 3 | 4 |  | CCCC[C@H]1C(=O)N(C)[C@@H](CCCC)C(=O)N[C@@H](CCCNC(=N)N)C(=O)N[C@H](C(=O)NCC(N)=O)CSCC(=O)N[C@@H](Cc2ccccc2)C(=O)N(C)[C@@H](C)C(=O)N[C@@H](CC(N)=O)C(=O)N2CCC[C@H]2C(=O)N[C@@H](Cc2cnc[nH]2)C(=O)N[C@@H](CC(C)C)C(=O)N2CCC[C@H]2C(=O)N[C@@H](Cc2c[nH]c3ccccc23)C(=O)N[C@@H](CO)C(=O)N[C@@H](Cc2c[nH]c3ccccc23)C(=O)N1C [Compound No. 55] ({CH2CO}-F[NMeA]NPHLPWSW[NMeNle][NMeNle]RCG-NH2; thioether N-14) |
| 28 | 3 |  | CCCC[C@H]1C(=O)N(C)[C@@H](CCCC)C(=O)N[C@@H](C)C(=O)N[C@H](C(=O)NCC(N)=O)CSCC(=O)N[C@@H](Cc2ccccc2)C(=O)N(C)[C@@H](C)C(=O)N[C@@H](CC(N)=O)C(=O)N2CCCC2C(=O)N[C@@H](Cc2cnc[nH]2)C(=O)N[C@@H](CC(C)C)C(=O)N(C)CC(=O)N[C@@H](Cc2c[nH]c3ccccc23)C(=O)N[C@@H](CO)C(=O)N[C@@H](Cc2c[nH]c3ccccc23)C(=O)N1C (stereo partly drawn) [Compound No. 22] |
|  |  | IC50 ([1]; Table 13, Compound No. 71 series): 7250 nM | CCCC[C@H]1C(=O)N(C)CC(=O)N[C@@H](CC(=O)O)C(=O)NC(C(C)C)C(=O)N(C)[C@@H](Cc2ccccc2)C(=O)N[C@@H](Cc2ccc(O)cc2)C(=O)N(C)CC(=O)N[C@@H](Cc2c[nH]c3ccccc23)C(=O)N[C@@H](C)C(=O)N[C@@H](CC(C)C)C(=O)N[C@H](C(=O)NCC(N)=O)CSCC(=O)N[C@@H](Cc2ccccc2)C(=O)N(C)[C@@H](Cc2ccccc2)C(=O)N1C (stereo partly drawn) [Compound No. 86] ({CH2CO}-F[NMeF][NMeNle][Sar]D[ξV][NMeF]Y[Sar]WALCG-NH2; thioether N-13) |
| > 10000 |  |  | CCCC[C@H]1NC(=O)[C@H](Cc2c[nH]c3ccccc23)NC(=O)[C@H](CO)NC(=O)[C@H](Cc2c[nH]c3ccccc23)NC(=O)CN(C)C(=O)[C@H](CC(C)C)NC(=O)[C@H](Cc2cnc[nH]2)NC(=O)[C@@H]2CCCN2C(=O)[C@H](CC(N)=O)NC(=O)[C@H](C)N(C)C(=O)[C@H](Cc2ccccc2)NC(=O)CSC[C@@H](C(=O)NCC(N)=O)NC(=O)[C@H](CCCNC(=N)N)NC(=O)[C@H](CCCC)N(C)C1=O [Compound No. 70] ({CH2CO}-F[NMeA]NPHL[Sar]WSW[dNle][NMeNle]RCG-NH2; thioether N-14) |
| 71 |  |  | CCCC[C@H]1C(=O)N(C)[C@@H](CCCC)C(=O)N[C@@H](CCCNC(=N)N)C(=O)N[C@H](C(=O)NCC(N)=O)CSCC(=O)N[C@@H](Cc2ccccc2)C(=O)N(C)[C@@H](C)C(=O)N[C@@H](CC(N)=O)C(=O)N[C@@H](C)C(=O)N[C@@H](Cc2cnc[nH]2)C(=O)N[C@@H](CC(C)C)C(=O)N(C)CC(=O)N[C@@H](Cc2c[nH]c3ccccc23)C(=O)N[C@@H](CO)C(=O)N[C@@H](Cc2c[nH]c3ccccc23)C(=O)N1C [Compound No. 9] ({CH2CO}-F[NMeA]NAHL[Sar]WSW[NMeNle][NMeNle]RCG-NH2; thioether N-14) |
